Laboratory results as given in US20250186627A1, “RADIOLABELED COMPOUNDS TARGETING THE PROSTATE-SPECIFIC MEMBRANE ANTIGEN” (PROVINCIAL HEALTH SERVICES AUTHORITY, priority 2022, published 2025).

System: NRG-mice bearing LNCaP tumors
Experiment: Biodistribution (and PET/SPECT imaging) in NRG-mice bearing LNCaP tumors
Type: in vivo
Conditions: Avg
Protocol: LNCaP cell line was obtained from ATCC (LNCaP clone FGC, CRL-1740). It was established from a metastatic site of left supraclavicular lymph node of human prostatic adenocarcinoma. Cells were cultured in PRMI 1640 medium supplemented with 10% FBS, penicillin (100 U/mL) and streptomycin (100 μg/mL) at 37° C. in a humidified incubator containing 5% CO2. Cells grown to 80-90% confluence were then washed with sterile phosphate-buffered saline (1×PBS pH 7.4) and trypsinization. The collected cells number was counted with a Hausser Scientific (Horsham, PA) Hemacytometer. Approximately 10 million LNCaP cells were inoculated into the left dorsal flank of immunocomprised NRG mice. The tumours were allowed to grow for 4-6 weeks and used for imaging and biodistribution studies when a volume of 200-600 mm^3 was reached.
PET imaging experiments were conducted using Siemens Inveon micro PET/CT scanner. SPECT imaging experiments were conducted using an MILabs micro SPECT/CT scanner. Each tumor bearing mouse was injected 4-6 MBq of ^68Ga or 18.5 MBq of ^177Lu labeled tracer through the tail vein under anesthesia (2% isoflurane in oxygen). The mice were allowed to recover and roam freely in their cage. At pre-defined time point, the mice were sedated again with 2% isoflurane in oxygen inhalation and positioned in the scanner. A 10-min CT scan was conducted first for localization and attenuation correction after segmentation for reconstructing the PET or SPECT images. Then, a 10-min static PET imaging or a one hour (30 min×2 frames) of static SPECT scan was performed to determined uptake in tumor and other organs. The mice were kept warm by a heating pad during acquisition.
For biodistribution studies, the mice were injected with the radiotracer as described above. The mice were anesthetized with 2% isoflurane inhalation, and euthanized by CO2 inhalation. Blood was withdrawn immediately from the heart, and the organs/tissues of interest were collected. The collected organs/tissues were weighed and counted using a Perkin Elmer (Waltham, MA) Wizard2 2480 gamma counter. The uptake in each organ/tissue was normalized to the injected dose (radioactivity) using a standard curve, and expressed as the percentage of the injected dose per gram of tissue (% ID/g).

COc1ccc(CCCC(=O)NCC(=O)NC(CCCCNC(=O)CN2CCN(CC(=O)[O-])CCN(CC(=O)[O-])CCN(CC(=O)[O-])CC2)CC(=O)NCC2CCC(C(=O)NC(Cc3c4ccccc4cc4ccccc34)C(=O)NCCCCC(NC(=O)NC(CC(F)C(=O)O)C(=O)O)C(=O)O)CC2)cc1.[177Lu+3] (stereo not drawn) [^177Lu-CCZ02019]
Biodistribution: Adrenal gland (3 h p.i.): 2.79 % ID/g | Biodistribution: Blood (3 h p.i.): 11.22 % ID/g | Biodistribution: Bone (3 h p.i.): 1.03 % ID/g | Biodistribution: Brain (3 h p.i.): 0.18 % ID/g | Biodistribution: Fat (3 h p.i.): 1.91 % ID/g | Biodistribution: Heart (3 h p.i.): 2.52 % ID/g | Biodistribution: Intestine (3 h p.i.): 0.98 % ID/g | Biodistribution: LNCaP tumor (3 h p.i.): 50.23 % ID/g | Biodistribution: Lacrimal gland (3 h p.i.): 0.39 % ID/g | Biodistribution: Liver (3 h p.i.): 2.18 % ID/g | Biodistribution: Lungs (3 h p.i.): 5.22 % ID/g | Biodistribution: Muscle (3 h p.i.): 0.87 % ID/g | Biodistribution: Pancreas (3 h p.i.): 1.07 % ID/g | Biodistribution: Salivary gland (3 h p.i.): 1.92 % ID/g | Biodistribution: Seminal gland (3 h p.i.): 0.59 % ID/g | Biodistribution: Spleen (3 h p.i.): 1.53 % ID/g | Biodistribution: Stomach (3 h p.i.): 0.58 % ID/g | Biodistribution: Testes (3 h p.i.): 2.55 % ID/g | Biodistribution: Thyroid (3 h p.i.): 2.44 % ID/g | Biodistribution: Urine (3 h p.i.): 180.95 % ID/g | Biodistribution: kidney (3 h p.i.): 10.42 % ID/g | Biodistribution: Adrenal gland (24 h p.i.): 0.54 % ID/g | Biodistribution: Blood (24 h p.i.): 0.70 % ID/g | Biodistribution: Bone (24 h p.i.): 0.18 % ID/g | Biodistribution: Brain (24 h p.i.): 0.03 % ID/g | Biodistribution: Fat (24 h p.i.): 0.33 % ID/g | Biodistribution: Heart (24 h p.i.): 0.37 % ID/g | Biodistribution: Intestine (24 h p.i.): 0.23 % ID/g | Biodistribution: LNCaP tumor (24 h p.i.): 55.39 % ID/g | Biodistribution: Lacrimal gland (24 h p.i.): 0.00 % ID/g | Biodistribution: Liver (24 h p.i.): 0.48 % ID/g | Biodistribution: Lungs (24 h p.i.): 0.65 % ID/g | Biodistribution: Muscle (24 h p.i.): 0.11 % ID/g | Biodistribution: Pancreas (24 h p.i.): 0.17 % ID/g | Biodistribution: Salivary gland (24 h p.i.): 0.56 % ID/g | Biodistribution: Seminal gland (24 h p.i.): 0.23 % ID/g | Biodistribution: Spleen (24 h p.i.): 0.37 % ID/g | Biodistribution: Stomach (24 h p.i.): 0.73 % ID/g | Biodistribution: Testes (24 h p.i.): 0.37 % ID/g | Biodistribution: Thyroid (24 h p.i.): 0.52 % ID/g | Biodistribution: Urine (24 h p.i.): 8.42 % ID/g | Biodistribution: kidney (24 h p.i.): 4.02 % ID/g | Biodistribution: Adrenal gland (72 h p.i.): 0.53 % ID/g | Biodistribution: Blood (72 h p.i.): 0.13 % ID/g | Biodistribution: Bone (72 h p.i.): 0.05 % ID/g | Biodistribution: Brain (72 h p.i.): 0.01 % ID/g | Biodistribution: Fat (72 h p.i.): 0.16 % ID/g | Biodistribution: Heart (72 h p.i.): 0.18 % ID/g | Biodistribution: Intestine (72 h p.i.): 0.08 % ID/g | Biodistribution: LNCaP tumor (72 h p.i.): 45.10 % ID/g | Biodistribution: Lacrimal gland (72 h p.i.): 0.00 % ID/g | Biodistribution: Liver (72 h p.i.): 0.29 % ID/g | Biodistribution: Lungs (72 h p.i.): 0.41 % ID/g | Biodistribution: Muscle (72 h p.i.): 0.04 % ID/g | Biodistribution: Pancreas (72 h p.i.): 0.09 % ID/g | Biodistribution: Salivary gland (72 h p.i.): 0.27 % ID/g | Biodistribution: Seminal gland (72 h p.i.): 0.06 % ID/g | Biodistribution: Spleen (72 h p.i.): 0.45 % ID/g | Biodistribution: Stomach (72 h p.i.): 0.15 % ID/g | Biodistribution: Testes (72 h p.i.): 0.39 % ID/g | Biodistribution: Thyroid (72 h p.i.): 0.37 % ID/g | Biodistribution: Urine (72 h p.i.): 1.12 % ID/g | Biodistribution: kidney (72 h p.i.): 1.84 % ID/g | Biodistribution: Adrenal gland (144 h p.i.): 0.31 % ID/g | Biodistribution: Blood (144 h p.i.): 0.04 % ID/g | Biodistribution: Bone (144 h p.i.): 0.04 % ID/g | Biodistribution: Brain (144 h p.i.): 0.01 % ID/g | Biodistribution: Fat (144 h p.i.): 0.11 % ID/g | Biodistribution: Heart (144 h p.i.): 0.13 % ID/g | Biodistribution: Intestine (144 h p.i.): 0.03 % ID/g | Biodistribution: LNCaP tumor (144 h p.i.): 40.77 % ID/g | Biodistribution: Lacrimal gland (144 h p.i.): 0.00 % ID/g | Biodistribution: Liver (144 h p.i.): 0.19 % ID/g | Biodistribution: Lungs (144 h p.i.): 0.93 % ID/g | Biodistribution: Muscle (144 h p.i.): 0.03 % ID/g | Biodistribution: Pancreas (144 h p.i.): 0.06 % ID/g | Biodistribution: Salivary gland (144 h p.i.): 0.34 % ID/g | Biodistribution: Seminal gland (144 h p.i.): 0.03 % ID/g | Biodistribution: Spleen (144 h p.i.): 0.51 % ID/g | Biodistribution: Stomach (144 h p.i.): 0.03 % ID/g | Biodistribution: Testes (144 h p.i.): 0.33 % ID/g | Biodistribution: Thyroid (144 h p.i.): 0.28 % ID/g | Biodistribution: Urine (144 h p.i.): 0.84 % ID/g | Biodistribution: kidney (144 h p.i.): 1.10 % ID/g | Biodistribution: Adrenal gland (240 h p.i.): 0.11 % ID/g | Biodistribution: Blood (240 h p.i.): 0.01 % ID/g | Biodistribution: Bone (240 h p.i.): 0.00 % ID/g | Biodistribution: Brain (240 h p.i.): 0.00 % ID/g | Biodistribution: Fat (240 h p.i.): 0.06 % ID/g | Biodistribution: Heart (240 h p.i.): 0.05 % ID/g | Biodistribution: Intestine (240 h p.i.): 0.02 % ID/g | Biodistribution: LNCaP tumor (240 h p.i.): 25.30 % ID/g | Biodistribution: Lacrimal gland (240 h p.i.): 0.00 % ID/g | Biodistribution: Liver (240 h p.i.): 0.15 % ID/g | Biodistribution: Lungs (240 h p.i.): 0.09 % ID/g | Biodistribution: Muscle (240 h p.i.): 0.01 % ID/g | Biodistribution: Pancreas (240 h p.i.): 0.03 % ID/g | Biodistribution: Salivary gland (240 h p.i.): 0.10 % ID/g | Biodistribution: Seminal gland (240 h p.i.): 0.01 % ID/g | Biodistribution: Spleen (240 h p.i.): 0.46 % ID/g | Biodistribution: Stomach (240 h p.i.): 0.02 % ID/g | Biodistribution: Testes (240 h p.i.): 0.16 % ID/g | Biodistribution: Thyroid (240 h p.i.): 0.12 % ID/g | Biodistribution: Urine (240 h p.i.): 0.37 % ID/g | Biodistribution: kidney (240 h p.i.): 0.52 % ID/g
